# Measured values taken from patent publication US9000162B2, “5,8-difluoro-4-(2-(4-(heteroaryloxy)-phenyl)ethylamino)quinazolines and their use as agrochemicals” (Dow AgroSciences LLC, priority 2008, dated 2015).
# Columns and labels:
# [1] = tested on: Pseudoperonospora cubensis (PSPECU); experiment: Cucumber downy mildew foliar protectant test; type: in vivo; conditions: 200 ppm foliar, inoculated one day after treatment, read-out: Activity against fungal diseases PSPECU
# Method in brief: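 Cucumber seedlings, first true leaf 20-80% expanded, were sprayed to wetness with formulated compound and inoculated next day with aqueous sporangia suspension. Severity was converted to percent control versus untreated inoculated plants: ***=80-100%, **=50-79%, *=0-49%.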
# [2] = tested on: Puccinia recondita tritici (PUCCRT); experiment: Leaf rust of wheat foliar protectant test; type: in vivo; conditions: 200 ppm foliar, inoculated one day after treatment, read-out: Activity against fungal diseases PUCCRT
# Method in brief: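 Wheat seedlings (3–8 per pot) were sprayed to wet with formulated compound and inoculated the next day with an aqueous Puccinia recondita tritici spore suspension. Severity was converted to % control versus untreated inoculated plants and rated *** 80–100%, ** 50–79%, * 0–49%.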
# [3] = tested on: Magnaporthe grisea = Pyricularia oryzae (PYRIOR); experiment: whole plant or invertebrate; type: in vivo; conditions: foliar, read-out: Activity against fungal diseases PYRIOR
# [4] = tested on: Septoria tritici (SEPTTR); experiment: Septoria blotch of wheat foliar protectant test; type: in vivo; conditions: Zymoseptoria tritici, read-out: Activity against fungal diseases SEPTTR; for pest or weed control at 200 ppm: 200 ppm foliar, inoculated one day after treatment
# Method in brief: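 Wheat seedlings (3-10 per pot) were sprayed to wet with formulated compound and inoculated next day with Septoria tritici spores. Plants then had 1 day in a dark dew chamber and 3 days in a lighted one before greenhouse incubation. Severity versus untreated inoculated plants gave percent control, scored *** 80-100%, ** 50-79%, * 0-49%.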
# Caenorhabditis elegans = conditions: 10 micrograms per milliliter agar, 24 h at 20° C.
# Experimental: The activity of the compounds against Caenorhabditis elegans was determined by dissolving compounds in DMSO, then applying them to petri dishes containing Nematode Growth Medium agar to a final concentration of 10 μg compound per milliliter agar. Escherichia coli bacteria were grown on the plates to provide a food source for the larvae of Caenorhabditis elegans. The bacteria were heat-killed at 65° C. before compounds were added to the plates.
# The plates with compound and heat-killed bacteria were infested with 10 microliter drops containing eggs from wild-type Caenorhabditis elegans worms. Adult worms were dissolved in KOH and bleach and washed in Ringers solution to generate the egg suspension. Each compound was screened with approximately 400 eggs, divided between two petri dishes. Egg hatching was evaluated after 24 h at 20° C. Mortality was averaged over the two plates.
# [5] = tested on: Septoria tritici (SEPTTR); experiment: Synergy with pyraclostrobin or epoxiconazole against Septoria blotch; conditions: alone
# Experimental: (§1) The compound was evaluated in mixtures with pyraclostrobin, or epoxiconazole for protectant and curative activity against wheat leaf rust (Puccinia triticina, PUCCRT), and Septoria blotch (Septoria tritici, SEPTTR).
# (§2) The compound was formulated at six rates (8.1, 2.7, 0.9, 0.3, 0.1, 0.03 ppm) and applied to wheat plants alone and in all combinations of it with pyraclostrobin or epoxiconazole using the methods described in section “Fungicidal Activity” above. Plants were inoculated three days before treatment (3DC) or one day after treatment (1DP), incubated in a greenhouse until disease was expressed, and visually rated (reported as % DC Obs) as described above. The expected control was calculated using the Colby equation (Colby, S. R. Calculation of the synergistic and antagonistic response of herbicide combinations. Weeds 1967 15, 20-22.).
# (§3) The following equation was used to calculate the expected activity of mixtures containing two active ingredients, A and B: Expected=A+B−(A×B/100)
# (§4) A=observed efficacy of active ingredient A at the same concentration as used in the mixture
# (§5) B=observed efficacy of active ingredient B at the same concentration as used in the mixture
# [6] = tested on: Puccinia triticina (PUCCRT); experiment: Synergy with pyraclostrobin or epoxiconazole against wheat leaf rust; conditions: alone
# Experimental: as §1, §2, §3, §4, §5
# [7] = tested on: Colorado Potato Beetle (Leptinotarsa decemlineata, LPTNDE); experiment: Colorado Potato Beetle larvae on sprayed tomato leaves; type: in vivo; conditions: foliar, 72 h, L2 larvae on sprayed tomato foliage, mortality after three days
# Experimental: Formulated test compounds were diluted and sprayed onto leaves of tomato plants. When dry, plant foliage was removed from the plant and placed in 8-well agar trays. Five L2 Colorado potato beetle larvae were placed in each well, and the trays were sealed and incubated at 26° C. Mortality was evaluated after three days.
# [8] = Mouse oral exposure (gavage), 14 days; set-up: species or system mice; conditions: female, CD-1/Swiss derived albino, in vivo, 5% w/v in 0.5% carboxymethylcellulose, monitored 14 days
# Experimental: The effect on mice of oral exposure was determined for compounds differing only in the number of fluorine substituents on the quinazoline ring, as shown in Table 5. Three CD-1/Swiss derived albino female mice were administered compounds by gavage as a 5% w/v mixture in 0.5% carboxymethylcellulose solution. The animals were monitored for 14 days.
Compound,pest or weed control at 200 ppm [1],pest or weed control at 200 ppm [2],pest or weed control at 200 ppm [3],pest or weed control at 200 ppm [4],Percent mortality (Caenorhabditis elegans),further results
COc1ccc(CCNc2ncnc3c(F)ccc(F)c23)c(C)c1 [Compound 42],80 to 100%,80 to 100%,80 to 100%,80 to 100%,6%,
Fc1ccc([C@]2(Cn3cncn3)O[C@H]2c2ccccc2Cl)cc1 (racemic) [epoxiconazole],,,,,,"% DC Obs ([5]; 1DP SEPTTR, 0.3 ppm): 36%; % DC Obs ([5]; 3DC SEPTTR, 0.3 ppm): 35%; % DC Obs ([6]; 1DP PUCCRT, 0.1 ppm): 0%; % DC Obs ([6]; 3DC PUCCRT, 0.1 ppm): 13%"
Fc1cc(Oc2cc(C(F)(F)F)ccn2)ccc1CCNc1ncnc2c(F)ccc(F)c12 [Compound 76],80 to 100%,80 to 100%,80 to 100%,80 to 100%,100%,
Fc1ccc(F)c2c(NCCc3ccc(Oc4ccc(C(F)(F)F)cn4)cc3)ncnc12 [Compound 1],80 to 100%,80 to 100%,80 to 100%,80 to 100%,,LC90 [7]: 0.49 µg/mL
[O-][n+]1ccc(C(F)(F)F)c(Oc2ccc(CCNc3ncnc4c(F)ccc(F)c34)cc2)c1 [Compound 115],80 to 100%,80 to 100%,80 to 100%,80 to 100%,100%,
"Fc1cccc2c(NCCc3ccc(Oc4cc(C(F)(F)F)ccn4)cc3)ncnc12 [drawing 198, reference compound]",,,,,,LD50 at 14 days [8]: < 100 mg/kg
Fc1cc(F)c2ncnc(NCCc3ccc(Oc4cc(C(F)(F)F)ccn4)cc3)c2c1F [Compound 31],80 to 100%,80 to 100%,80 to 100%,80 to 100%,,LD50 at 14 days [8]: > 500 mg/kg; LC90 [7]: 50 to 200 µg/mL
Fc1cc(F)c2ncnc(NCCc3ccc(Oc4ccc(C(F)(F)F)cn4)cc3)c2c1F [Compound 74],80 to 100%,80 to 100%,80 to 100%,80 to 100%,,LC90 [7]: 1 µg/mL
Fc1ccc(F)c2c(NCCc3ccc(Oc4cc(C(F)(F)F)ccn4)cc3)ncnc12 [Compound 6],80 to 100%,80 to 100%,80 to 100%,80 to 100%,,LD50 at 14 days [8]: 100 to 500 mg/kg; LC90 [7]: 12.5 to 50 µg/mL
ivermectin [reference compound],,,,,95%,
COC(=O)N(OC)c1ccccc1COc1ccn(-c2ccc(Cl)cc2)n1 [pyraclostrobin],,,,,,"% DC Obs ([5]; 1DP SEPTTR, 0.3 ppm): 49%; % DC Obs ([5]; 3DC SEPTTR, 0.1 ppm): 14%; % DC Obs ([6]; 1DP PUCCRT, 0.1 ppm): 8%; % DC Obs ([6]; 3DC PUCCRT, 0.3 ppm): 4%"
"Fc1ccc(F)c2c(NCCc3ccc(Oc4ccnc(C(F)(F)F)c4)cc3)ncnc12 [Example 11, (5,8-Difluoroquinazolin-4-yl)-{2-[4-(2-trifluoromethylpyridin-4-yloxy)-phenyl]-ethyl}-amine]",,,,,,melting point: 95 to 96 °C
Fc1ccc(F)c2c(NCCc3ccc(Oc4nccc(C(F)(F)F)n4)cc3)ncnc12 [Compound 3],80 to 100%,80 to 100%,50 to 79%,80 to 100%,100%,
Fc1cc(F)c2ncnc(NCCc3ccc(Oc4cnccc4C(F)(F)F)c(Cl)c3)c2c1F [Compound 93],,80 to 100%,80 to 100%,80 to 100%,100%,
COc1cc(CCNc2ncnc3c(F)ccc(F)c23)ccc1Oc1cc(C(F)(F)F)ccn1 [Compound 15],80 to 100%,80 to 100%,80 to 100%,80 to 100%,,"% DC Obs ([5]; 1DP SEPTTR, 2.7 ppm): 31%; % DC Obs ([5]; 3DC SEPTTR, 0.9 ppm): 22%; % DC Obs ([6]; 1DP PUCCRT, 0.3 ppm): 33%; % DC Obs ([6]; 3DC PUCCRT, 0.3 ppm): 6%; % DC Obs ([6]; 3DC PUCCRT, 0.9 ppm): 52%"
N#Cc1ccc(Oc2ccc(CCNc3ncnc4c(F)ccc(F)c34)cc2)nc1 [Compound 124],80 to 100%,80 to 100%,80 to 100%,,,"pest or weed control at 25 ppm ([4]; foliar, Tested at 25 ppm (footnote b)): 50 to 79%; LC90 [7]: 3.1 to 12.5 µg/mL"
N#Cc1cc(Cl)ncc1Oc1ccc(CCNc2ncnc3c(F)ccc(F)c23)cc1 [Compound 125],80 to 100%,80 to 100%,80 to 100%,80 to 100%,0%,
